The values that follow come from patent US20080058383A1 (priority 2003, published 2008).

The structures appear in SMILES notation. Like-named read-outs stand apart in the source and are kept apart here.

Assay [1] addresses T1, androgen receptor (CMV-hAR) in CV-1 cells (Homo sapiens, UniProt P10275).
T1 construct: expressed in transfected cells
T1 sequence (P10275 1-920): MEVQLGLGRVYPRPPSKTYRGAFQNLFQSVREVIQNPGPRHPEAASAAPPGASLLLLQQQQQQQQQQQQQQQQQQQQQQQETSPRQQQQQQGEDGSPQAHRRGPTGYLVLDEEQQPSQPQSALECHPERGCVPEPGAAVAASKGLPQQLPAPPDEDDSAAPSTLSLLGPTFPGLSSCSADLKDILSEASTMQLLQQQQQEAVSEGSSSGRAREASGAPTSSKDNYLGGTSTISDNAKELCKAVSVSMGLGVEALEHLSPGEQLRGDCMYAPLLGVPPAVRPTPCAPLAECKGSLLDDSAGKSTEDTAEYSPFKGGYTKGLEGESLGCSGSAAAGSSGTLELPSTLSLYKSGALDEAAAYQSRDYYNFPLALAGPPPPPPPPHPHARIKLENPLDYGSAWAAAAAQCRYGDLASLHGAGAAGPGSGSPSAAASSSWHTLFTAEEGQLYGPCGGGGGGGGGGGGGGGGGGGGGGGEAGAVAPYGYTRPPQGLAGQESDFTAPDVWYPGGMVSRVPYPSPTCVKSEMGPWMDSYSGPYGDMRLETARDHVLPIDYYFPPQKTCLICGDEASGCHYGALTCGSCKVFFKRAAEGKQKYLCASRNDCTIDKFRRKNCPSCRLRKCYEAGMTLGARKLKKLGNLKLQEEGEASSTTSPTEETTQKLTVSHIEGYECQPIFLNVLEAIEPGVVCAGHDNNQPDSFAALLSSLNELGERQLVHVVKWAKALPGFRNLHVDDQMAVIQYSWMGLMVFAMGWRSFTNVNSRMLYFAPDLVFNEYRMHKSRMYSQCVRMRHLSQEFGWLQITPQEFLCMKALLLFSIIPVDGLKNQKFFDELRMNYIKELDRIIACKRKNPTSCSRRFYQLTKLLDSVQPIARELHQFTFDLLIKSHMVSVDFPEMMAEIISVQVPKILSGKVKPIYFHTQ
Put plainly: AR transactivation assay, agonist mode (ARAF cells, ALP reporter, absence of Mibolerone). It is filed as cell-based. The following applies: for ARAF % AGONIST: ALP activity in absence of Mibolerone compared to standard activation curve of Mibolerone alone. How it is done:
(§1) The agonist and antagonist properties of compounds were determined using a cell-based system expressing stably integrated androgen receptor and an androgen responsive reporter gene. CV-1 cells (kidney fibroblasts) stably expressing CMV-hAR and alkaline phosphatase (ALP) driven by an MMTV promoter containing an androgen response element were cultured in Dulbecco's Modified Eagle Medium (DMEM), low glucose supplemented with 10% fetal bovin serum, 1% L-glutamine, and 0.7% Hygromycine B. The stably integrated cells (ARAF) were trypsinized and resuspended in Opti-MEM 1 supplemented with 2% fetal bovine serum, 1% L-Glutamine, 50 μg/ml Gentamicine and 1% Pen/Strep. The cells were counted in a Birch chamber and diluted to a concentration of 100 000 cells/ml. The cells were then seeded out in 384 plates, 5000 cells/well in 50 μl seeding media and incubated overnight in 37 C, 5% CO2.
(§2) The next day, the seeding medium was removed from the cells and 20 μl induction media (Opti-MEM 1 supplemented with 1% L-Glutamine, 50 μg/ml Gentamicine and 1% Pen/Strep)+/−0.1 nM Mibolerone was added to the wells. 10 μl of test compound diluted in induction media was then added to the wells. The cells were incubated 48 hr in 37 C, 5% CO2.
(§3) After 48 hr 5 μl of cell medium was added to white 384 plates with 100 μl of ALP substrate buffer. The plates were incubated in 37 C for 20 minutes followed by incubation at room temperature for 10 minutes before each well was read in a μBETA machine. Agonist activity was calculated from the alkaline phosphatase activity induced in the absence of Mibolerone and compared to standard activation curve generated by Mibolerone alone. Antagonist activity was calculated from the decrease in ALP activity in the presence of 0.1 nM Mibolerone. EC50 and IC50 values were calculated by using a non-linear four-parameter fit as described above.

Assay [2] deals with T2, Recombinant human androgen receptor (hAR) (Homo sapiens, UniProt P10275).
T2 construct: made in house; host or cells: Sf9 insect cells
T2 sequence (P10275 1-920): T1 sequence (P10275 1-920)
As to the kind of experiment: AR competition binding assay (3H-mibolerone tracer). On the procedure: Recombinant human androgen receptor (hAR) was extracted from Sf9 insect cells with buffer containing 1 mM EDTA, 20 mM K2HPO4, 8.7% glycerol, 20 mM Na2MoO4 and 12 mM MTG at 5*10^7 cells/ml. The cell debris was removed by centrifugation and the supernatant aliquoted and stored at −70° C.
An aliquot of AR extract was thawed on ice prior to use and diluted to approximately 0.2 nM (1 to 30 dilution) in buffer (100 mM KnHmPO4 pH 7.0, 1 mM EDTA, 8.7% glycerol, 20 mM Na2MoO4 and 1 mM DTT). The test ligands were diluted in DMSO as a dilution series of 10 concentrations in duplicate, with 1:5 dilution between each concentration. Tritiated mibolerone (^3H-Mib) was used as tracer compound and diluted to 1.6 nM in 1 mM EDTA, 20 mM Na2MoO4, 8.7% glycerol and 1 mM DTT. To a 96-well polypropylene-plate 110 μl/well of 1.6 nM ^3H-Mib, 10 μl/well test substance and 110 μl/well diluted AR was added. The plates were covered and incubated at +4° C. over night. The plates were harvested on filters to separate bound ligand from unbound ligand with a Tomtec Harvester. A prewet buffer containing 20 mM Kn(PO4) pH 7.6, 1 mM EDTA, v/v 0.5% polyethyleneimine was used to equilibrate the filter before filtering the samples and washing the filters with 20 mM Kn(PO4) pH 7.6, 1 mM EDTA 8 times. The filters were allowed to dry for 1 hour at +65° C. A scintillating wax was melted upon the filter and the radioactivity retained on the filter was measured in a Wallac Microbeta scintillation counter.
The affinity to AR was evaluated by a non-linear four-parameter logisitic model: b=(bmax−bmin)/(1+(IC50/I)̂S)+bmin, where bmax=total concentration of binding sites, bmin=non-specific binding, I=added concentration of binding inhibitor, IC50=concentration of binding inhibitor at half-maximal binding and S=slope factor. Table: Antagonist and partial antagonist and binding activity of androgen receptor modulator compounds.

Assay [3] addresses T1, androgen receptor (CMV-hAR) in CV-1 cells. As to the kind of experiment: AR transactivation assay, antagonist mode (ARAF cells, ALP reporter, presence of 0.1 nM Mibolerone). It is filed as cell-based. Particulars: for ARAF % ANTAGONIST: decrease in ALP activity in the presence of 0.1 nM Mibolerone. How it is done:
as §1, §2, §3

Setting [4] is: competition with 3H-Mib, hAR extract from Sf9 cells, +4° C. over night, read-out: AR_LT IC50.
Where [5] appears, read: CV-1 cells stably expressing hAR and MMTV-ALP, absence of Mibolerone, 48 hr, read-out: ARAF EC50.
Where [6] appears, read: CV-1 cells stably expressing hAR and MMTV-ALP, presence of 0.1 nM Mibolerone, 48 hr, read-out: ARAF IC50.

In the case of `CC(C)(CO)Nc1ccc([N+](=O)[O-])c(C(F)(F)F)c1` [Example-1, 2-Methyl-2-(4-nitro-3-trifluoromethyl-phenylamino)-propan-1-ol], in assay [1], a half-maximal effect (EC50) was put at 26.8 nM and the “ARAF % AGONIST” value was found to be 51.7%. Moreover, the 50% inhibitory concentration (IC50) – broadly, the concentration that gives 50% inhibition – in assay [2] (setting [4]) was found to be 22.8 nM. In assay [3], the half-inhibitory concentration (IC50) was 2.1 nM and the “ARAF % ANTAGONIST” value stood at 33.1%.

With `Cc1cc(NC(C)(C)CO)ccc1[N+](=O)[O-]` [Example-5], the “ARAF % AGONIST” value in assay [1] came to 29.3%. In assay [1] (setting [5]), the EC50 (usually the concentration that produces a half-maximal response) came to 81.7 nM. The IC50 in assay [2] (setting [4]) came to 38.1 nM; in assay [3] (setting [6]), 7.2 nM. Moreover, the “ARAF % ANTAGONIST” value in assay [3] is 61%.

As for `Cc1nc(NC(C)(C)CO)ccc1[N+](=O)[O-]` [Example-8, 2-Methyl-2-(6-methyl-5-nitro-pyridin-2-ylamino)-propan-1-ol], the “ARAF % AGONIST” value in assay [1] is recorded as 10.6%. Besides, the EC50 in assay [1] (setting [5]) worked out at 374 nM. For the same compound, the IC50 in assay [2] (setting [4]) was 241 nM; in assay [3] (setting [6]), 22.3 nM. The “ARAF % ANTAGONIST” value in assay [3] is recorded as 82.5%.

In the case of `N#Cc1ccc(NC2(CO)CCCC2)cc1C(F)(F)F` [Example-19, 4-(1-Hydroxymethyl-cyclopentylamino)-2-trifluoromethyl-benzonitrile], the IC50 in assay [2] (setting [4]) is 130 nM; in assay [3] it was 22.4 nM. In assay [3], the “ARAF % ANTAGONIST” value is given as 95.6%.

In the case of `CC(C)[C@@H](CO)Nc1ccc([N+](=O)[O-])c(C(F)(F)F)c1` [Example-30], in assay [1], the response was half-maximal at 1070 nM (EC50) and the “ARAF % AGONIST” value came out at 7.3%. Further, the IC50 in assay [2] (setting [4]) turned out to be 113 nM. In assay [3], the IC50 came out at 68.3 nM and the “ARAF % ANTAGONIST” value is given as 88.7%.

Turning to `O=[N+]([O-])c1ccc(N[C@H](CO)CSCc2ccccc2)cc1C(F)(F)F` [Example-41], the IC50 is 65.1 nM in assay [2] (setting [4]) and 490 nM in assay [3] (setting [6]). In assay [3], the “ARAF % ANTAGONIST” value came to 71.7%.

As to `CCCC(CO)Nc1ccc([N+](=O)[O-])c(C(F)(F)F)c1` (centres unmarked) [Example-42], the values for the IC50 in assay [2] and in assay [3] (setting [6]) were 486 nM and 493 nM, respectively. In addition, the “ARAF % ANTAGONIST” value in assay [3] came out at 92%.

Regarding `CCCC[C@@H](CO)Nc1ccc([N+](=O)[O-])c(C)n1` [Example-60], the “ARAF % AGONIST” value in assay [1] was 9.3%. In assay [1] (setting [5]), the EC50 amounted to 336 nM. Moreover, the IC50 in assay [2] (setting [4]) was determined as 68.3 nM; in assay [3] (setting [6]), 27.4 nM. Also, in assay [3], the “ARAF % ANTAGONIST” value was 79.3%.

On to `CC[C@H](C)[C@@H](CO)Nc1ccc([N+](=O)[O-])c(C)n1` [Example-61], for which, in assay [2] (setting [4]), the 50% inhibitory concentration (IC50) was found to be 89.3 nM. In assay [3], the IC50 came to 68.3 nM and the “ARAF % ANTAGONIST” value was 87.4%.

As to `Cc1nc(N[C@H](CO)CSCc2ccccc2)ccc1[N+](=O)[O-]` [Example-65], the “ARAF % AGONIST” value in assay [1] came out at 7%. Besides, in assay [1] (setting [5]), the EC50 turned out to be 1870 nM. Moreover, the IC50 in assay [2] (setting [4]) is 6.2 nM; in assay [3] (setting [6]), 78 nM. The “ARAF % ANTAGONIST” value in assay [3] was determined as 89.2%.

For `CCCC(CO)Nc1ccc([N+](=O)[O-])c(C)c1` (centres unmarked) [Example-78], in assay [1], the “ARAF % AGONIST” value is recorded as 25%. In addition, in assay [1] (setting [5]), the concentration giving a half-maximal response (EC50) is 280 nM. For the same compound, the IC50 in assay [2] (setting [4]) worked out at 54.5 nM; in assay [3] (setting [6]), 25.8 nM. Further, in assay [3], the “ARAF % ANTAGONIST” value was 65.4%.

Consider `Cc1cc(NCCNc2ccc([N+](=O)[O-])cn2)ccc1[N+](=O)[O-]` [Example-86], for which the half-inhibitory concentration (IC50) in assay [2] (setting [4]) was found to be 443 nM; in assay [3] (setting [6]) it was 351 nM. Further, the “ARAF % ANTAGONIST” value in assay [3] is 100%.

Regarding `CCC[C@@H](CO)Nc1ccc([N+](=O)O)cc1` [Example-103, (S)-2-(4-Nitro-phenylamino)-pentan-1-ol], the values for the IC50 in assay [2] (setting [4]) and in assay [3] (setting [6]) were 98.7 nM and 136 nM, respectively. In assay [3], the “ARAF % ANTAGONIST” value amounted to 92.9%.

Regarding `CCC[C@@H](CO)Nc1ccc([N+](=O)[O-])cc1Br` [Example-106, (S)-2-(2-Bromo-4-nitro-phenylamino)-pentan-1-ol], the IC50 worked out at 170 nM in assay [2] and 241 nM in assay [3] (setting [6]). Further, the “ARAF % ANTAGONIST” value in assay [3] was determined as 88.2%.
